The text below walks through data of PMC8285423, “In vitro efficacy of artemisinin-based treatments against SARS-CoV-2” (Scientific Reports, 2021).

Data set [1] can be described thus: Cell viability assay (CellTiter 96 AQueous One) in Huh7.5 cells. The conditions noted are these: human.
Method: (§1) To evaluate cytotoxic effects of the tested extracts, compounds, and diluents (DMSO), cell viability was monitored using the CellTiter 96 AQueous One Solution Cell Proliferation Assay (Promega, Madison, WI, USA). VeroE6 cells, Huh7.5 cells or A549-hACE2 cells were plated at 10,000, 8000 or 10,000 cells per well of flat bottom 96-well plates, respectively (Thermo Fisher Scientific, Roskilde, Denmark). The next day, medium was exchanged to contain specified concentrations of extracts or compounds or dilutions of DMSO adding 100 µL per well. Each concentration or dilution was tested in 3 replicates; at least 6 nontreated control wells were included in the assay. For VeroE6 cells and A549-hACE2 cells, after 48 ± 2 h, and for Huh7.5 cells, after 72 ± 2 h of incubation at 37 °C and 5% CO2, 20 µL CellTiter 96 AQueous One Solution Reagent was added per well and plates were incubated for 1.5 to 2 h at 37 °C and 5% CO2, prior to recording absorbance at 492 nm using a FLUOstar OPTIMA 96-well plate reader (BMG LABTECH, Offenburg, Germany). Absorbance recorded in each well was related to the average absorbance of nontreated control wells to calculate the percentage of cell viability. Datapoints included in figures are means of triplicates from one independent experiment with SEM. Sigmoidal dose response curves were fitted and median cytotoxic concentration (CC50) values were calculated with GraphPad Prism 8.0.0 using a bottom constraint of 0 and the formula Y = Top/(1 + 10^((LogCC50-X) * HillSlope)) as further specified in Figures S5, S7, and S9.
The nature of a further data set: in vitro. The conditions noted are these: African green monkey.
Data set [2] deals with SARS-CoV-2/human/Denmark/DK-AHH1/2020. In words: microbe, parasite or virus in culture. The class given is cell-based. The conditions noted are these: for EC50: Severe acute respiratory syndrome coronavirus 2, 48 h.
Data set [3] shares this test system. In words: Concentration–response treatment antiviral assay in VeroE6 cells (spike immunostaining). The class given is cell-based. The conditions noted are these: for EC50 / concentration at which almost / close to complete virus inhibition was achieved: VeroE6 cells; for EC50: added 1 h post infection, 2-day incubation, read-out: EC50 Treatment assay; for concentration at which almost / close to complete virus inhibition was achieved: treatment assay.

The nature of data set [4]: Cell viability assay (CellTiter 96 AQueous One) in A549-hACE2 cells. The format is cell-based. The conditions noted are these: human, no infection.
The test system of data set [5] is SARS-CoV-2/human/Denmark/DK-AHH1/2020. In words: Concentration–response pretreatment antiviral assay in VeroE6 cells (spike immunostaining). The class given is cell-based. The conditions noted are these: for EC50: Severe acute respiratory syndrome coronavirus 2, Vero C1008, added 1.5 h prior to infection, 2-day incubation.
The test system of the next data set is SARS-CoV-2. In words: Treatment assays summarised over different cell types (VeroE6, Huh7.5, A549-hACE2). The format is cell-based. The conditions noted are these: Severe acute respiratory syndrome coronavirus 2, VeroE6, Huh7.5, A549-hACE2 cells, read-out: range of 50% effective concentrations (EC50) in different cell types.
Data set [6] has as its system SARS-CoV-2/human/Denmark/DK-AHH1/2020. In words: microbe, parasite or virus in culture. The format is cell-based.
The subject of data set [7] is SARS-CoV-2/human/Germany/BavPat 1/2020. In words: Plaque reduction antiviral assay (pretreatment) in VeroE6 cells. The format is cell-based. The conditions noted are these: addition prior to virus addition.
The nature of data set [8]: Cell viability assay (CellTiter 96 AQueous One) in VeroE6 cells. The conditions noted are these: African green monkey.
Method: as §1
Data set [9] has as its system SARS-CoV-2 isolate from Wuhan. On the set-up: method as in earlier work. The conditions noted are these: VeroE6 cells, assay terminated 24 h post infection, ref 22 (Cao et al.); cited from earlier work.
The conditions of data set [10]: animal studies; single dose; cited from earlier work.
The subject of data set [11] is SARS-CoV-2/human/Denmark/DK-AHH1/2020. In words: Time-of-addition experiment with artesunate in A549-hACE2 cells. The format is cell-based. The conditions noted are these: for inhibition at 14 µg/mL: read-out: inhibition of viral infection.
The mark [12] stands for this setting: Severe acute respiratory syndrome coronavirus 2, Vero C1008.
The mark [13] stands for this setting: A549-hACE2 cells, treatment assay, added directly after inoculation, 2-day incubation, read-out: EC50.
Where [14] appears, read: Severe acute respiratory syndrome coronavirus 2, 72 h, Huh7.5 cells, treatment assay, added directly after inoculation, 3-day incubation, read-out: EC50.

pEC50: −log10 of the molar value. Converted amounts (≈) assume the structure as drawn.

Method for in vitro: as §1

`CO[C@H]1O[C@@H]2O[C@@]3(C)CC[C@H]4[C@H](C)CC[C@@H]([C@H]1C)[C@@]24OO3` [Artemether] displayed a CC50 at 72 h in data set [1] of 127 µg/mL (≈ 426 µM). In addition, the CC50 at 48 h in the data set “in vitro” turned out to be 360 µg/mL (≈ 1210 µM); in [4], 380 µg/mL (≈ 1270 µM). In addition, in data set [2] (A549-hACE2 cells, treatment assay), the “concentration with close to complete virus inhibition” value is given as 92 µg/mL. The EC50 in data set [2] was 53 µg/mL (≈ 178 µM); in data set [3] (setting [12]) it was 98 µg/mL; in [5], 147 µg/mL (≈ 493 µM); with SARS-CoV-2, 53 to 98 µg/mL (≈ 178 to 328 µM); in data set [6] (Severe acute respiratory syndrome coronavirus 2, Huh7.5, 72 h), 64 µg/mL (≈ 214 µM). The “concentration at which almost / close to complete virus inhibition was achieved” value in [3] was not below 153 µg/mL. Moreover, in data set [5] (Severe acute respiratory syndrome coronavirus 2, Vero C1008, pretreatment assay, 153 µg/mL, read-out: virus inhibition), the inhibition at 153 µg/mL was found to be 52%. Moreover, the inhibition at 65 µg/mL in [6] (Severe acute respiratory syndrome coronavirus 2, Huh7.5, read-out: virus inhibition) was determined as 56%.
Take `C[C@@H]1CC[C@H]2[C@@H](C)C(=O)O[C@@H]3O[C@@]4(C)CC[C@@H]1[C@]32OO4` [Artemisinin]: in [1], the CC50 at 72 h worked out at 5070 µg/mL (≈ 17900 µM). In addition, the EC50 in data set [2] (setting [13]) is 168 µg/mL (≈ 595 µM); in data set [3] (setting [12]) it was 151 µg/mL; in [5], 238 µg/mL (≈ 843 µM); in data set [6] (setting [14]) it was more than 208 µg/mL. Also, the entries for the “concentration at which almost / close to complete virus inhibition was achieved” value in data set [3] and in data set [5] (pretreatment assay) were 1208 µg/mL and 893 µg/mL, respectively. The “effect on plaque formation (in words)” value in data set [7] is recorded as “little antiviral activity”. Further, the CC50 at 48 h was found to be 1530 µg/mL (≈ 5410 µM) in [4] and 8220 µg/mL (≈ 29100 µM) in [8]. Also, in data set [6] (Huh7.5 cells, treatment assay, highest evaluated (non-cytotoxic) concentration 208 µg/mL), the virus inhibition result is “no significant virus inhibition”. For the same molecule, the inhibition at 208 µg/mL in [6] (Severe acute respiratory syndrome coronavirus 2, Huh7.5 cells, treatment assay, highest evaluated (non-cytotoxic) concentration 208 µg/mL) is less than 50%.
Turning to `C[C@H]1[C@H](OC(=O)CCC(=O)O)O[C@@H]2O[C@@]3(C)CC[C@H]4[C@H](C)CC[C@@H]1[C@@]24OO3` [Artesunate], the pEC50 is 4.89 in [9] and 4.74 in data set [3] (Severe acute respiratory syndrome coronavirus 2, Vero C1008, VeroE6 treatment assay, read-out: EC50). The molecule further had a CC50 at 72 h in data set [1] of 93 µg/mL (≈ 242 µM). For the same molecule, the EC50 in [2] (setting [13]) is 12 µg/mL (≈ 31.2 µM); in data set [3] (setting [12]), 7 µg/mL; with SARS-CoV-2, 7 to 12 µg/mL (≈ 18.2 to 31.2 µM); in data set [6] (setting [14]), 11 µg/mL (≈ 28.6 µM). Moreover, the inhibition at 14 µg/mL was 63% in data set [2] (Severe acute respiratory syndrome coronavirus 2, A549-hACE2 cells, treatment assay, highest evaluated concentration 14 µg/mL); not below 80% in data set [11] (Severe acute respiratory syndrome coronavirus 2, added 2 h post inoculation); not below 80% in [11] (Severe acute respiratory syndrome coronavirus 2, added 4 h post inoculation); not below 80% in data set [11] (Severe acute respiratory syndrome coronavirus 2, added 6 h post inoculation). In addition, the “concentration at which almost / close to complete virus inhibition was achieved” value in [3] came to 15 µg/mL. The values for the CC50 at 48 h in data set [4] and in [8] were 27 µg/mL (≈ 70.2 µM) and 41 µg/mL (≈ 107 µM), respectively. Besides, the inhibition at 15 µg/mL in [5] (Severe acute respiratory syndrome coronavirus 2, Vero C1008, pretreatment assay, 15 µg/mL (highest evaluated concentration), read-out: virus inhibition) was 69%. Moreover, the “tissue concentrations (lung, kidney, intestine, spleen) versus plasma concentrations” value in data set [10] is reported as “several-fold higher”. Further, in data set [11] (14 µg/mL, added 0 h post inoculation, present during the 2 h viral infection phase), the “inhibition of viral infection” value is on record as “did not result in inhibition”. The “concentration with close to complete virus inhibition” value in [6] (Huh7.5 cells, treatment assay) is reported as 22 µg/mL.
